According to US7501413B2, “Dicarboxamide derivatives” (Hoffmann-La Roche Inc., priority 2004, dated 2009):

Target: T1, human factor Xa (Homo sapiens, UniProt P00742)
T1 construct: purchased Enzyme Research Laboratories
Experiment: Factor Xa chromogenic peptide substrate assay (S-2222)
Format: biochemical
Conditions: human factor Xa 3 nM, chromogenic substrate S-2222 at 200 nM, HNPT buffer pH 7.8, room temperature; apparent Ki calculated from IC50 (Cheng-Prusoff), Km 613 μM
Protocol: Factor Xa activity was measured spectrophotometrically in microtiter plates in a final volume of 150 μl using the following conditions: Inhibition of human factor Xa (Enzyme Research Laboratories) was tested at an enzyme concentration of 3 nM using the chromogenic substrate S-2222 (Chromogenix AB, Mölndal, Sweden) at […]. The reaction kinetics of the enzyme and the substrate were linear with both time and the enzyme concentration. The inhibitors were dissolved in DMSO and tested at various concentrations up to 100 μM. The inhibitors were diluted using HNPT buffer consisting of HEPES 100 mM, NaCl 140 mM, PEG 6000 0.1% and Tween 80 0.02%, pH 7.8. The cleavage of S-2222 by human factor Xa was followed at 405 nm for 5 minutes at room temperature. The velocity of the reaction was determined by the autoreader from the slope of the linear regression fit to 7 time points (1 minute). The initial velocity for each inhibitor concentration was determined by the slope of at least 4 time points in the linear phase by a linear regression fit (mOD/min^2). Apparent dissociation constants Ki were calculated according to Cheng and Prusoff [Cheng, Y. C.; Prusoff, W. H. Relationship between the inhibition constant (Ks) and the concentration of the inhibitor that causes 50 percent inhibition (IC50) of an enzyme reaction. Biochem. Pharmacol. 1973, 22, 3099-3108.] based on the IC50 and the respective Km, determined previously (Ki=IC50/(1+S/Km)). The Km for the substrate used was determined under the conditions of the test with at least 5 substrate concentrations ranging from 0.5 to 15 times Km. [Lottenberg R, Hall J A, Blinder M, Binder E P, Jackson C M., The action of thrombin on peptide p-nitroanilide substrates. Substrate selectivity and examination of hydrolysis under different reaction conditions. Biochim Biophys Acta. 1983 Feb. 15; 742(3):539-57]. according to Eadie [Eadie G. S. The inhibition of cholinesterase by physostigmine and prostigmine. J. Biol. Chem. 1942, 146, 85-93.]. The Km for S-2222 amounted to 613 μM.

T1 sequence (P00742 235-488 limits assumed): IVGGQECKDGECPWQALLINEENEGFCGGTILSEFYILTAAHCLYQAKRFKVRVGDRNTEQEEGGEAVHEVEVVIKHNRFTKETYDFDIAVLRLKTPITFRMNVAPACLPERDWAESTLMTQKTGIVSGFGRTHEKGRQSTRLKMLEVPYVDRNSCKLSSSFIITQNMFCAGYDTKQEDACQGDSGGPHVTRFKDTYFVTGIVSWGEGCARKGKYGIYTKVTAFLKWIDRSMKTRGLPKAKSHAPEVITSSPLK
T1 sequence (P00742 41-179 partner limits assumed): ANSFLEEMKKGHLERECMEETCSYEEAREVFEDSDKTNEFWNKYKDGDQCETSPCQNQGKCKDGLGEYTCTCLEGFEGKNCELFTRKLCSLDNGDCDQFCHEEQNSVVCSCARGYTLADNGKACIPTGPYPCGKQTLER

Compound	Ki
O=C(Nc1ccc(Cl)cc1)[C@H]1CC2(CC2)C[C@@H]1C(=O)Nc1ccc(-n2ccccc2=O)cc1F [Example 48, (5S,6S)-Spiro[2.4]heptane-5,6-dicarboxylic acid (4-chloro-phenyl)-amide [2-fluoro-4-(2-oxo-2H-pyridin-1-yl)-phenyl]-amide]	0.008 µM
O=C(Nc1ccc(Cl)cc1)[C@H]1C[C@@H](O)C[C@H]1C(=O)Nc1ccc(-n2ccccc2=O)cc1F [Example 52, (1S,2S,4S)-4-Hydroxy-cyclopentane-1,2-dicarboxylic acid 1-[(4-chloro-phenyl)-amide]2-{[2-fluoro-4-(2-oxo-2H-pyridin-1-yl)-phenyl]-amide}]	0.013 µM
COC1(CO)C[C@H](C(=O)Nc2ccc(Cl)cc2)[C@@H](C(=O)Nc2ccc(-n3ccccc3=O)cc2F)C1 (single isomer, unassigned) [Example 47, (1S,2S,4S)- or (1S,2S,4R)-4-Hydroxymethyl-4-methoxy-cyclopentane-1,2-dicarboxylic acid 1-[(4-chloro-phenyl)-amide]2-{[2-fluoro-4-(2-oxo-2H-pyridin-1-yl)-phenyl]-amide}]	0.009 µM
